Source: US11505581B2, “Antigens and T cell epitopes from cockroach and methods of making and using same” (La Jolla Institute for Allergy and Immunology, priority 2015, dated 2022)

What follows are sequences tested on PBMC (assay: ELISPOT (IFNγ, IL-5, IL-10, IL-17, IL-21) of PBMC expanded 14 days with Bla g extract, then stimulated with peptides or peptide pools). Conditions: non-redundant epitopes; sensitized donors.
Type: cell-based, human
Design: key to Average Magnitude of Response: spot forming cells (SFC) per 10^6 PBMC; Response Rate per Subject: unit not given here
Method: PBMC Isolation and Cell Cultures: PBMC (peripheral blood mononuclear cells) were isolated from 450 mL (one unit) of blood by density gradient centrifugation as described and cryopreserved. For in vitro expansion of PBMC for peptide screening, cells were cultured in RPMI1640 (Omega Scientific)+5% human AB serum (Gemini Bioscience), GlutaMAX (Gibco), and penicillin/streptomycin (Omega Scientific) at 2×10^6 per mL, stimulated with 10 ug/mL Bla g extract (Greer), and incubated at 37° C. in 5% CO2. Every three days, IL-2 and IL-7 (10 U/mL) were added to the cultures. Cells were harvested for peptide screening at day 14.
ELISPOT Assays: Production of IFNγ, IL-5, IL-17, IL-10, and IL-21 (as representative of TH1, TH2, TH17, TR1, and […], respectively) in response to peptide stimulation was measured by ELISPOT as described previously. […] In brief, 1×10^5 cells per well were incubated with peptide, peptide pool, or Bla g extract (10, 5, and 10 ug/ml, respectively) on anti-lymphokine antibody coated ELISPOT plates (Millipore #MSIPS4510) for 22 hours. Subsequently, secondary anti-lymphokine antibodies were added and incubated for 2 hours, washed, and avidin-peroxidase complex added for 1 hour. Plates were washed and spots developed with 3-amino-9-ethylcarbazole (Sigma #A6926) and Vector Blue (Vector #SK-5300) for IFNγ/IL-5 and IL-10/IL-17 dual plates or TMB (Sigma #T0565) for single IL-21. Criteria for peptide pool positivity were at least 100 spot forming cells (SFC) per 10^6 PBMC, p<0.05, and stimulation index≥2. Criteria for peptide positivity were identical except with a threshold of 20 SFCs.
We synthetized overlapping peptide sets of 15 amino acids in length overlapping by 10 residues and covering the entire sequence of known Bla g Allergens, i.e. Bla g 1-7, 9 and 11, referred from hereafter collectively as BLAGA. A total of 809 BLAGA peptides were arranged in pools, encompassing on average 20 peptides.
To assess T cell reactivity, we utilized a strategy applied to the definition of epitopes from various allergen sources^15,16 utilizing in vitro stimulation with allergen extracts. Here, PBMC from each subject were stimulated in vitro with Bla g extract. After 14 days, pools of overlapping 15-mer peptides from the BLAGA were tested for responses, and positive pools deconvoluted to identify the specific epitopes. As readout, we utilized ELISPOT assays specific for IL-5, IFNγ, IL-10, IL-17 and IL-21, chosen as representative of TH2, TH1, TR1, TH17 and TFH reactivity, respectively.
With STSCNVVVASQECVG the “Average Magnitude of Response” value was 4.2 and the “Response Rate per Subject” value was 4.3. QDVHKKLREWLSKNV was tested, and the “Average Magnitude of Response” value was 8.5 and the “Response Rate per Subject” value was 1.4. VQKLQKEVDRLEDEL was tested, and the “Average Magnitude of Response” value was 3.3 and the “Response Rate per Subject” value was 1.4. With FRKFSNNFEFSYLLG the “Average Magnitude of Response” value was 3.3 and the “Response Rate per Subject” value was 1.4. YHYDADENSKQKKWD was tested, and the “Average Magnitude of Response” value was 3.7 and the “Response Rate per Subject” value was 2.9. For LRLSEHLDYVKNLTV, the “Average Magnitude of Response” value was 3.1 and the “Response Rate per Subject” value was 1.4. For KLGDKEMIQHYTLDQ, the “Average Magnitude of Response” value was 5.0 and the “Response Rate per Subject” value was 1.4. In the case of KQLKVSQIMEAARKL, the “Average Magnitude of Response” value is reported as 4.2 and the “Response Rate per Subject” value is reported as 4.3. In the case of ATDYENYAIVEGCPA, the “Average Magnitude of Response” value is reported as 32.7 and the “Response Rate per Subject” value is reported as 1.4. For VIYVQIRFSVRRFHP, the “Average Magnitude of Response” value was 15.1 and the “Response Rate per Subject” value was 2.9. In the case of KELVEKYGKGKAIFI, the “Average Magnitude of Response” value is reported as 3.4 and the “Response Rate per Subject” value is reported as 2.9. KTPVLSVNATVVRLQ was tested, and the “Average Magnitude of Response” value was 3.2 and the “Response Rate per Subject” value was 1.4. For NASAVIQEFLKTYKK, the “Average Magnitude of Response” value was 5.0 and the “Response Rate per Subject” value was 2.9. In the case of EIDGKQTHQSVAISR, the “Average Magnitude of Response” value is reported as 3.8 and the “Response Rate per Subject” value is reported as 4.3. With IRHAILAAGDLYSRR the “Average Magnitude of Response” value was 5.5 and the “Response Rate per Subject” value was 1.4. In the case of “DRKMYWQFKMDKIQI (listed as Blattella germanica)”, the “Average Magnitude of Response” value is reported as 78.8 and the “Response Rate per Subject” value is reported as 5.7. For RILLRLHRCFQVLGR, the “Average Magnitude of Response” value was 13.5 and the “Response Rate per Subject” value was 1.4. For “NDIEKRVPFSHDDRL (listed as Blattella germanica)”, the “Average Magnitude of Response” value was 72.8 and the “Response Rate per Subject” value was 15.7. In the case of WVPSKKCHLTNIACL, the “Average Magnitude of Response” value is reported as 8.4 and the “Response Rate per Subject” value is reported as 5.7. In the case of VEALFLLMKADPSIH, the “Average Magnitude of Response” value is reported as 4.2 and the “Response Rate per Subject” value is reported as 1.4. For AVLALCATDTLANED, the “Average Magnitude of Response” value was 3.0 and the “Response Rate per Subject” value was 2.9. With MNITGSINLMFSQMY the “Average Magnitude of Response” value was 7.6 and the “Response Rate per Subject” value was 5.7. For RCNNVGIRIYVDVVL, the “Average Magnitude of Response” value was 13.0 and the “Response Rate per Subject” value was 2.9. For KVFLKNYLVGNAQFK, the “Average Magnitude of Response” value was 6.4 and the “Response Rate per Subject” value was 1.4. In the case of THQFNVAGSVTVDKT, the “Average Magnitude of Response” value is reported as 5.6 and the “Response Rate per Subject” value is reported as 2.9. In the case of LVFLRNAKIELKPNQ, the “Average Magnitude of Response” value is reported as 4.0 and the “Response Rate per Subject” value is reported as 2.9. With VVFDTGSSNLWVPSK the “Average Magnitude of Response” value was 4.7 and the “Response Rate per Subject” value was 4.3. For RIKAFLALVECPCNK, the “Average Magnitude of Response” value was 4.2 and the “Response Rate per Subject” value was 1.4. For GQEYTFYVIVTPYAK, the “Average Magnitude of Response” value was 3.2 and the “Response Rate per Subject” value was 2.9. In the case of KAIEEDLKHFNLKYE, the “Average Magnitude of Response” value is reported as 5.7 and the “Response Rate per Subject” value is reported as 2.9. For DVLQWQTIPYTTIHN, the “Average Magnitude of Response” value was 15.9 and the “Response Rate per Subject” value was 2.9. With PVDQIIAIATDYLAN the “Average Magnitude of Response” value was 7.5 and the “Response Rate per Subject” value was 2.9. KDDWENLEIDMIVDT was tested, and the “Average Magnitude of Response” value was 8.4 and the “Response Rate per Subject” value was 2.9.
